Assay results from paper PMC3860322 (Leukemia & lymphoma, 2013).

Experiments:
acute myeloid leukemia = conditions: phase I trial in AML, after one cycle of therapy; cited from earlier work
cytochrome P450 3A4 = conditions: cited from earlier work
[1] = Plasma pharmacokinetics of 17-AAG and its metabolite 17-AG; format: in vivo, patients; conditions: for AUC exposed: combined AUC of 17-AAG and 17-AG
[2] = metabolite 17-AG, day 1 (17-AAG alone), 17-AAG 150 mg/m^2, n=8
[3] = metabolite 17-AG, day 1 (17-AAG alone), 17-AAG 200 mg/m^2, n=3
[4] = metabolite 17-AG, day 4 (17-AAG+PS-341), 17-AAG 150 mg/m^2, n=8
[5] = metabolite 17-AG, day 4 (17-AAG+PS-341), 17-AAG 200 mg/m^2, n=3
[6] = 17-AAG in plasma, day 1 (17-AAG alone), 150 mg/m^2, n=8
[7] = 17-AAG in plasma, day 1 (17-AAG alone), 200 mg/m^2, n=3
[8] = 17-AAG in plasma, day 4 (17-AAG+PS-341), 150 mg/m^2, n=8
[9] = 17-AAG in plasma, day 4 (17-AAG+PS-341), 200 mg/m^2, n=3
[10] = 17-AAG, day 1 (17-AAG alone), 150 mg/m^2, n=8
[11] = 17-AAG, day 1 (17-AAG alone), 200 mg/m^2, n=3
[12] = 17-AAG, day 4 (17-AAG+PS-341), 150 mg/m^2, n=8
[13] = 17-AAG, day 4 (17-AAG+PS-341), 200 mg/m^2, n=3

CO[C@H]1/C=C\C=C(/C)C(=O)NC2=CC(=O)C(NCCN(C)C)=C(C[C@@H](C)C[C@H](OC)[C@H](O)[C@@H](C)/C=C(\C)[C@@H]1OC(N)=O)C2=O [alvespimycin]
clinical response (acute myeloid leukemia): three patients achieved a complete remission with incomplete count recovery

CC(C)C[C@H](NC(=O)[C@H](Cc1ccccc1)NC(=O)c1cnccn1)B(O)O [bortezomib]
metabolizing enzyme (cytochrome P450 3A4): metabolized by cytochrome P450 3A4

CO[C@H]1/C=C\C=C(/C)C(=O)NC2=CC(=O)C(N)=C(C[C@@H](C)C[C@H](OC)[C@H](O)[C@@H](C)/C=C(\C)[C@@H]1OC(N)=O)C2=O [17-AG, 17-amino-17-demethoxygeldanamycin]
AUC exposed ([1]; day 1 (17-AAG alone), 17-AAG 150 mg/m^2, n=8): 12205 ± 8530 ng·h/mL | AUC exposed ([1]; day 1 (17-AAG alone), 17-AAG 200 mg/m^2, n=3): 18959 ± 3169 ng·h/mL | AUC exposed ([1]; day 4 (17-AAG+PS-341), 17-AAG 150 mg/m^2, n=8): 14468 ± 7179 ng·h/mL | AUC exposed ([1]; day 4 (17-AAG+PS-341), 17-AAG 200 mg/m^2, n=3): 22403 ± 1036 ng·h/mL | change in 17-AG clearance on co-administration with bortezomib ([1]; day 4 (17-AAG+bortezomib) vs day 1 (17-AAG alone), all 11 patients, p=0.005): decrease in clearance | change in 17-AG AUC on co-administration with bortezomib ([1]; day 4 (17-AAG+bortezomib) vs day 1 (17-AAG alone), all 11 patients, p=.032): increase in AUC | Cmax ([1]; metabolite 17-AG in plasma, day 1 (17-AAG alone), 17-AAG 150 mg/m^2, n=8): 821 ± 450 ng/mL | Cmax ([1]; metabolite 17-AG in plasma, day 1 (17-AAG alone), 17-AAG 200 mg/m^2, n=3): 1300 ± 421 ng/mL | Cmax ([1]; metabolite 17-AG in plasma, day 4 (17-AAG+PS-341), 17-AAG 150 mg/m^2, n=8): 1025 ± 445 ng/mL | Cmax ([1]; metabolite 17-AG in plasma, day 4 (17-AAG+PS-341), 17-AAG 200 mg/m^2, n=3): 1412 ± 26 ng/mL | Clearance ([1]; metabolite 17-AG, apparent clearance, day 1 (17-AAG alone), 17-AAG 150 mg/m^2, n=8): 41.35 ± 26.48 L/h | Clearance ([1]; metabolite 17-AG, apparent clearance, day 1 (17-AAG alone), 17-AAG 200 mg/m^2, n=3): 23.07 ± 12.01 L/h | Clearance ([1]; metabolite 17-AG, apparent clearance, day 4 (17-AAG+PS-341), 17-AAG 150 mg/m^2, n=8): 29.87 ± 23.29 L/h | Clearance ([1]; metabolite 17-AG, apparent clearance, day 4 (17-AAG+PS-341), 17-AAG 200 mg/m^2, n=3): 14.86 ± 1.55 L/h | AUCtot [1, 2]: 6334 ± 6244 ng·h/mL | Terminal T1/2 [1, 2]: 11.16 ± 1.40 h | Tmax [1, 2]: 1.53 ± 0.42 h | AUCtot [1, 3]: 9957 ± 4258 ng·h/mL | Terminal T1/2 [1, 3]: 7.92 ± 1.76 h | Tmax [1, 3]: 1.53 ± 0.46 h | AUCtot [1, 4]: 7751 ± 5028 ng·h/mL | Terminal T1/2 [1, 4]: 10.53 ± 2.20 h | Tmax [1, 4]: 1.85 ± 1.10 h | AUCtot [1, 5]: 13261 ± 1216 ng·h/mL | Terminal T1/2 [1, 5]: 7.47 ± 0.73 h | Tmax [1, 5]: 3.72 ± 0.64 h

C=CCNC1=C2C[C@@H](C)C[C@H](OC)[C@H](O)[C@@H](C)/C=C(\C)[C@H](OC(N)=O)[C@@H](OC)/C=C\C=C(/C)C(=O)NC(=CC1=O)C2=O [17-AAG, 17-Allylamino-17-demethoxygeldanamycin, reference compound]
Cmax ([1]; 17-AAG in plasma, cycle 1 day 1 (17-AAG alone), 17-AAG 200 mg/m^2 IV, n=3): 3814 ± 578 ng/mL | AUCtot [1, 6]: 5871 ± 2508 ng·h/mL | Terminal T1/2 [1, 6]: 4.77 ± 1.15 h | AUCtot [1, 7]: 9002 ± 1970 ng·h/mL | Terminal T1/2 [1, 7]: 4.59 ± 0.21 h | AUCtot [1, 8]: 6717 ± 2631 ng·h/mL | Terminal T1/2 [1, 8]: 4.04 ± 0.86 h | AUCtot [1, 9]: 9142 ± 1358 ng·h/mL | Terminal T1/2 [1, 9]: 3.78 ± 1.29 h | Clearance [1, 10]: 29.36 ± 11.11 L/h | Vss [1, 10]: 98.10 ± 37.46 L | Clearance [1, 11]: 22.92 ± 4.89 L/h | Vss [1, 11]: 73.30 ± 16.81 L | Clearance [1, 12]: 24.94 ± 8.10 L/h | Vss [1, 12]: 82.36 ± 19.91 L | Clearance [1, 13]: 21.92 ± 3.91 L/h | Vss [1, 13]: 86.83 ± 24.37 L
